Laboratory results: PubChem BioAssay AID248 (DTP/NCI, 2004)
Inconclusive results and toxic doses are left out. No stated cut-off is given here; in the data, active means T/C of 150% or more; inactive means T/C below 125%.

System: L1210 leukemia ip in BDF1 mice, survival T/C
Test: NCI In Vivo Anticancer Drug Screen. Data for tumor model L1210 Leukemia (intraperitoneal) in B6D2F1 (BDF1) mice
Settings: endpoint: mean survival time, higher = longer survival
Method in brief: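 Value reflects the ratio of survival in compound-treated mice to survival in vehicle-treated controls, with both groups carrying the same transplanted tumor.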

Measured: T/C

O=C(N/N=C/c1cccc(F)c1)c1ccccc1Cl
inactive: dose: 50.0 mg/kg/injection, schedule: Q01DX009 (ip), vehicle: saline with Tween-80 91 % of control | dose: 100.0 mg/kg/injection, schedule: Q01DX009 (ip), vehicle: saline with Tween-80 102 % of control | dose: 200.0 mg/kg/injection, schedule: Q01DX009 (ip), vehicle: saline with Tween-80 87 % of control

CCCNC(C)(C)C(SSSC(c1cccs1)C(C)(C)NCCC)c1cccs1 (centres undefined)
inactive: dose: 12.5 mg/kg/injection, schedule: Q01DX009 (ip), vehicle: saline 101 % of control | dose: 12.5 mg/kg/injection, schedule: Q04DX003 (ip), vehicle: Klucel (hydroxypropylcellulose) (HPC) 96 % of control | dose: 25.0 mg/kg/injection, schedule: Q01DX009 (ip), vehicle: saline 95 % of control | dose: 25.0 mg/kg/injection, schedule: Q04DX003 (ip), vehicle: Klucel (hydroxypropylcellulose) (HPC) 106 % of control | dose: 50.0 mg/kg/injection, schedule: Q01DX009 (ip), vehicle: saline 92 % of control | dose: 50.0 mg/kg/injection, schedule: Q04DX003 (ip), vehicle: Klucel (hydroxypropylcellulose) (HPC) 96 % of control | dose: 75.0 mg/kg/injection, schedule: Q01DX009 (ip), vehicle: Klucel (hydroxypropylcellulose) (HPC) 98 % of control | dose: 75.0 mg/kg/injection, schedule: Q01DX009 (ip), vehicle: saline 88 % of control | dose: 115.0 mg/kg/injection, schedule: Q01DX009 (ip), vehicle: Klucel (hydroxypropylcellulose) (HPC) 97 % of control | dose: 170.0 mg/kg/injection, schedule: Q01DX009 (ip), vehicle: Klucel (hydroxypropylcellulose) (HPC) 96 % of control | dose: 170.0 mg/kg/injection, schedule: Q01DX009 (ip), vehicle: saline 89 % of control
